“Also recorded” adds a separate entry of the source.
Tested on: Human dermal fibroblasts F5140616B1
Experiment: Effect of NAEs on AMP/ATP Ratio in Fibroblast Cells (metabolites by LC/MS)
Assay type: cell-based
Parameters: AMP/ATP Ratio: scale not given here
Conditions: for AMP/ATP Ratio / Increase Over Vehicle (AMP/ATP ratio): 500 uM, fibroblasts treated every other day for 6 days; for AMP/ATP Ratio: vehicle (ethanol) 367; for Increase Over Vehicle (AMP/ATP ratio): vs ethanol vehicle; for AMP/ATP ratio, result in words: fibroblast cells, 500 uM where stated
Description: The experiments in this Example 2 were conducted in the following manner.
Method for Treatment of Fibroblasts with Bioenergetic Compounds
Human dermal fibroblasts F5140616B1 (MatTek Corporation, Ashland, Mass.) were derived from a donor and cultured in DMEM media (ThermoFisher Cat #31053-036) supplemented with FBS (Hyclone/Fisher Scientific Cat #SH30007103), glutamine (ThermoFisher Cat #35050-61) and sodium pyruvate (ThermoFisher Cat #11360-070). At the third passage, the cells were detached from the culture vessels using Trypsin/EDTA (T/E) solution (0.25 mg/mL) (Lonza Cat #CC-5012) and used for experimentation.
Cells were treated with the compounds every other day for a total of 6 days. Treatment involved removal of the spent media+compounds and replenishment with fresh media+compounds. At the end of the experiment, the cells were detached from the culture vessels using the standard procedure outlined above. The cells were centrifuged and then washed 1× with Dulbecco's PBS with no calcium or magnesium (ThermoFisher Cat #14190144) and then accurate cell counts were taken using a Scepter cell counter (EMD Millipore). The cells were then split equally into 2 Eppendorf tubes, and centrifuged. Excess PBS was then removed from the resulting cell pellets. The pellets were then immediately frozen on dry ice and sent to an external laboratory for analysis of metabolites by LC/MS.

| SMILES | AMP/ATP Ratio | Increase Over Vehicle (AMP/ATP ratio) [%] | AMP/ATP ratio, result in words |
| --- | --- | --- | --- |
| CC(=O)O[C@@H]1[C@@H](CO)OC([n+]2cccc(C(N)=O)c2)[C@@H]1OC(C)=O.O=S(=O)([O-])C(F)(F)F (stereo partly drawn) [JR1, 3-carbamoyl-1-((3R,4R,5R)-3,4-diacetoxy-5-(hydroxymethyl)tetrahydrofuran-2-yl)pyridin-1-ium trifluoromethanesulfonate] | 756 | 106 | – |
| CCCC(=O)O[C@@H]1[C@@H](CO)OC([n+]2cccc(C(N)=O)c2)[C@@H]1OC(=O)CCC.O=S(=O)([O-])C(F)(F)F (stereo partly drawn) [JR2, 1-((3R,4R,5R)-3,4-bis(butyryloxy)-5-(hydroxymethyl)tetrahydrofuran-2-yl)-3-carbamoylpyridin-1-ium trifluoromethanesulfonate] | 919 | 150 | – |
| CC(=O)O[C@@H]1[C@@H](CO)OC(N2C=CCC(C(N)=O)=C2)[C@@H]1OC(C)=O (stereo partly drawn) [JR3, (3R,4R,5R)-2-(3-carbamoylpyridin-1(4H)-yl)-5-(hydroxymethyl) tetrahydrofuran-3,4-diyl diacetate] | 1231 | 235 | – |
| NC(=O)c1cccnc1 [Nicotinamide, reference compound] | 529 | 44 | somewhat elevated levels of AMP/ATP ratio over control vehicle |
| CC1(C)OCC(COC(=O)c2cccnc2)O1 (stereo not shown) [VC1, (2,2-dimethyl-1,3-dioxolan-4-yl)methyl nicotinate] | 1010 | 175 | increased AMP/ATP ratio in testing; also recorded: notably increase the AMP/ATP ratio; also recorded: significantly elevated levels of AMP/ATP ratio over both, control vehicle and nicotinamide; also recorded: increase in the levels of AMP/ATP ratio; also recorded: demonstrably increased AMP/ATP ratio |
| O=C(OCC(O)CO)c1cccnc1 (stereo not shown) [VC2, 2,3-dihydroxypropyl nicotinate] | – | – | increased AMP/ATP ratio in testing; also recorded: notably increase the AMP/ATP ratio; also recorded: increase in the levels of AMP/ATP ratio; also recorded: demonstrably increased AMP/ATP ratio |
| CC1(C)OCC(OC(=O)c2cccnc2)CO1 [VC4, 2,2-dimethyl-1,3-dioxan-5-yl nicotinate] | 941 | 156 | increased AMP/ATP ratio in testing; also recorded: notably increase the AMP/ATP ratio; also recorded: significantly elevated levels of AMP/ATP ratio over both, control vehicle and nicotinamide; also recorded: demonstrably increased AMP/ATP ratio |
